Test results: US10597388B2, “Pyridazinone herbicides” (FMC CORPORATION, priority 2014, dated 2020)

What was measured:
Experiment in all cases: Test C greenhouse herbicide test, pre- and postemergence
Assay type in all cases: in vivo
[1] = test system: nutsedge, yellow (yellow nutsedge, Cyperus esculentus)
Summary of the method: (§1)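 Each species was treated both before emergence, in a loam–sand soil mix, and after emergence, as 1- to 4-leaf seedlings in peat-based potting medium. Plants stayed in the greenhouse 13 to 15 d, then were scored from 0 (no effect) to 100 (complete control) relative to controls.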

[2] = test system: johnsongrass (Sorghum halepense)
Summary of the method: as §1

[3] = test system: foxtail, giant (giant foxtail, Setaria faberii)
Summary of the method: as §1

[4] = test system: waterhemp (common waterhemp, Amaranthus rudis)
Summary of the method: as §1

[5] = test system: galium (catchweed bedstraw, Galium aparine)
Summary of the method: as §1

[6] = test system: lambsquarters (Chenopodium album)
Summary of the method: as §1

[7] = test system: oilseed rape (Brassica napus)
Summary of the method: as §1

[8] = test system: barnyardgrass (Echinochloa crus-galli)
Summary of the method: as §1

[9] = test system: morningglory (Ipomoea coccinea)
Summary of the method: as §1

[10] = test system: velvetleaf (Abutilon theophrasti)
Summary of the method: as §1

[11] = test system: ragweed (common ragweed, Ambrosia elatior)
Summary of the method: as §1

soybean (Glycine max) = test system: soybean (Glycine max)
Summary of the method: as §1

[12] = test system: pigweed (Amaranthus retroflexus)
Summary of the method: as §1

[13] = test system: wheat (winter wheat, Triticum aestivum)
Summary of the method: as §1

[14] = test system: blackgrass (Alopecurus myosuroides)
Summary of the method: as §1

[15] = test system: crabgrass, large (large crabgrass, Digitaria sanguinalis)
Summary of the method: as §1

[16] = Postemergence, 31 g ai/ha, scale 0 to 100 (0 no effect, 100 complete control)
[17] = Postemergence, 62 g ai/ha, 0 to 100 scale (0 no effect, 100 complete control)
[18] = Postemergence, 250 g ai/ha, scale 0 to 100, 0 no effect, 100 complete control, 13 to 15 d
[19] = Preemergence, 31 g ai/ha, scale 0 to 100, 0 is no effect, 100 is complete control
[20] = Preemergence, 62 g ai/ha, scale 0 to 100, 0 is no effect, 100 is complete control
[21] = Preemergence, 125 g ai/ha, scale 0 to 100, 0 is no effect, 100 is complete control
[22] = Preemergence, 250 g ai/ha, scale 0 to 100 (0 no effect, 100 complete control)
[23] = postemergence, 125 g ai/ha, scale 0 to 100, 0 no effect, 100 complete control

In the case of `CCC(=O)Oc1c(C)nn(C)c(=O)c1-c1ccc(Br)c2ccccc12` [Compound 133], the “Plant response rating, Nutsedge, Yellow” value [1, 16] is reported as 75, the “Nutsedge, Yellow plant response rating” value [1, 17] is reported as 90 and the “Plant response rating, Nutsedge, Yellow” value [1, 18] is reported as 98. The “Plant response rating, Nutsedge, Yellow” value [1, 19] was 20, the “Plant response rating, Nutsedge, Yellow” value [1, 20] was 55 and the “Plant response rating, Nutsedge, Yellow” value [1, 21] was 70. For the same compound, the “Nutsedge, Yellow plant response rating” value [1, 22] was 95, the “Nutsedge, Yellow plant response rating” value [1, 23] was 95 and the “Plant response rating, Johnsongrass” value [2, 16] was 5. The “Johnsongrass plant response rating” value [2, 17] was 10, the “Plant response rating, Johnsongrass” value [2, 18] was 10 and the “Plant response rating, Johnsongrass” value [2, 19] was 5. For the same compound, the “Plant response rating, Johnsongrass” value [2, 20] was 35, the “Plant response rating, Johnsongrass” value [2, 21] was 30 and the “Johnsongrass plant response rating” value [2, 22] was 40. The “Johnsongrass plant response rating” value [2, 23] was 20, the “Plant response rating, Foxtail, Giant” value [3, 16] was 25 and the “Foxtail, Giant plant response rating” value [3, 17] was 25. For the same compound, the “Plant response rating, Foxtail, Giant” value [3, 18] was 55, the “Plant response rating, Foxtail, Giant” value [3, 19] was 30 and the “Plant response rating, Foxtail, Giant” value [3, 20] was 65. The “Plant response rating, Foxtail, Giant” value [3, 21] was 75, the “Foxtail, Giant plant response rating” value [3, 22] was 90 and the “Foxtail, Giant plant response rating” value [3, 23] was 40. The “Plant response rating, Waterhemp” value [4, 16] was 95, the “Waterhemp plant response rating” value [4, 17] was 100 and the “Plant response rating, Waterhemp” value [4, 18] was 100. For the same compound, the “Plant response rating, Waterhemp” value [4, 19] was 80, the “Plant response rating, Waterhemp” value [4, 20] was 100 and the “Plant response rating, Waterhemp” value [4, 21] was 95. The “Waterhemp plant response rating” value [4, 22] was 100, the “Waterhemp plant response rating” value [4, 23] was 100 and the “Plant response rating, Galium” value [5, 16] was 90. For the same compound, the “Galium plant response rating” value [5, 17] was 95, the “Plant response rating, Galium” value [5, 18] was 100 and the “Plant response rating, Galium” value [5, 19] was 95. The “Plant response rating, Galium” value [5, 20] was 95, the “Plant response rating, Galium” value [5, 21] was 100 and the “Galium plant response rating” value [5, 22] was 100. The “Galium plant response rating” value [5, 23] was 98, the “Plant response rating, Lambsquarters” value [6, 16] was 95 and the “Lambsquarters plant response rating” value [6, 17] was 98. For the same compound, the “Plant response rating, Lambsquarters” value [6, 18] was 100, the “Plant response rating, Lambsquarters” value [6, 19] was 90 and the “Plant response rating, Lambsquarters” value [6, 20] was 90. The “Plant response rating, Lambsquarters” value [6, 21] was 95, the “Lambsquarters plant response rating” value [6, 22] was 95 and the “Lambsquarters plant response rating” value [6, 23] was 100. The “Plant response rating, Oilseed Rape” value [7, 16] was 95, the “Oilseed Rape plant response rating” value [7, 17] was 98 and the “Plant response rating, Oilseed Rape” value [7, 18] was 98. For the same compound, the “Plant response rating, Oilseed Rape” value [7, 19] was 5, the “Plant response rating, Oilseed Rape” value [7, 20] was 85 and the “Plant response rating, Oilseed Rape” value [7, 21] was 90. For the same compound, the “Oilseed Rape plant response rating” value [7, 22] was 90, the “Oilseed Rape plant response rating” value [7, 23] was 98 and the “Plant response rating, Barnyardgrass” value [8, 16] was 15. For the same compound, the “Barnyardgrass plant response rating” value [8, 17] was 30, the “Plant response rating, Barnyardgrass” value ([8]; Postemergence, 125 g ai/ha, scale 0 to 100, 0 is no effect, 100 is complete control) was 45 and the “Plant response rating, Barnyardgrass” value [8, 18] was 35. For the same compound, the “Plant response rating, Barnyardgrass” value [8, 19] was 0, the “Plant response rating, Barnyardgrass” value [8, 20] was 40 and the “Plant response rating, Barnyardgrass” value [8, 21] was 50. For the same compound, the “Barnyardgrass plant response rating” value [8, 22] was 95, the “Plant response rating, Morningglory” value [9, 16] was 100 and the “Morningglory plant response rating” value [9, 17] was 100. The “Plant response rating, Morningglory” value [9, 18] was 95, the “Plant response rating, Morningglory” value [9, 19] was 45 and the “Plant response rating, Morningglory” value [9, 20] was 85. The “Plant response rating, Morningglory” value [9, 21] was 90, the “Morningglory plant response rating” value [9, 22] was 95 and the “Morningglory plant response rating” value [9, 23] was 100. The “Plant response rating, Velvetleaf” value [10, 16] was 85, the “Velvetleaf plant response rating” value [10, 17] was 90 and the “Plant response rating, Velvetleaf” value [10, 18] was 100. The “Plant response rating, Velvetleaf” value [10, 19] was 55, the “Plant response rating, Velvetleaf” value [10, 20] was 90 and the “Plant response rating, Velvetleaf” value [10, 21] was 90. For the same compound, the “Velvetleaf plant response rating” value [10, 22] was 100, the “Velvetleaf plant response rating” value [10, 23] was 100 and the “Plant response rating, Ragweed” value [11, 16] was 0. The “Ragweed plant response rating” value [11, 17] was 0, the “Plant response rating, Ragweed” value [11, 18] was 5 and the “Plant response rating, Ragweed” value [11, 19] was 70. The “Plant response rating, Ragweed” value [11, 20] was 75, the “Plant response rating, Ragweed” value [11, 21] was 95 and the “Ragweed plant response rating” value [11, 22] was 98. For the same compound, the “Ragweed plant response rating” value [11, 23] was 5, the “Plant response rating, Soybean” value (soybean (Glycine max); [16]) was 55 and the “Soybean plant response rating” value (soybean (Glycine max); [17]) was 40. The “Plant response rating, Soybean” value (soybean (Glycine max); [18]) was 40, the “Plant response rating, Soybean” value (soybean (Glycine max); [19]) was 5 and the “Plant response rating, Soybean” value (soybean (Glycine max); [20]) was 55. The “Plant response rating, Soybean” value (soybean (Glycine max); [21]) was 65, the “Soybean plant response rating” value (soybean (Glycine max); [22]) was 80 and the “Soybean plant response rating” value (soybean (Glycine max); [23]) was 75. The “Plant response rating, Pigweed” value [12, 16] was 80, the “Pigweed plant response rating” value [12, 17] was 98 and the “Plant response rating, Pigweed” value [12, 18] was 95. The “Plant response rating, Pigweed” value [12, 19] was 100, the “Plant response rating, Pigweed” value [12, 20] was 100 and the “Plant response rating, Pigweed” value [12, 21] was 100. The “Pigweed plant response rating” value [12, 22] was 100, the “Pigweed plant response rating” value [12, 23] was 100 and the “Plant response rating, Wheat” value [13, 16] was 25. For the same compound, the “Wheat plant response rating” value [13, 17] was 35, the “Plant response rating, Wheat” value [13, 18] was 80 and the “Plant response rating, Wheat” value [13, 19] was 0. The “Plant response rating, Wheat” value [13, 20] was 0, the “Plant response rating, Wheat” value [13, 21] was 10 and the “Wheat plant response rating” value [13, 22] was 40. The “Wheat plant response rating” value [13, 23] was 55, the “Plant response rating, Blackgrass” value [14, 16] was 45 and the “Blackgrass plant response rating” value [14, 17] was 35. The “Plant response rating, Blackgrass” value [14, 18] was 30, the “Plant response rating, Blackgrass” value [14, 19] was 30 and the “Plant response rating, Blackgrass” value [14, 20] was 60. For the same compound, the “Plant response rating, Blackgrass” value [14, 21] was 50, the “Blackgrass plant response rating” value [14, 22] was 50 and the “Blackgrass plant response rating” value [14, 23] was 70. The “Plant response rating, Crabgrass, Large” value [15, 16] was 0, the “Crabgrass, Large plant response rating” value [15, 17] was 5 and the “Plant response rating, Crabgrass, Large” value [15, 18] was 20. The “Plant response rating, Crabgrass, Large” value [15, 19] was 0, the “Plant response rating, Crabgrass, Large” value [15, 20] was 30 and the “Plant response rating, Crabgrass, Large” value [15, 21] was 35. For the same compound, the “Crabgrass, Large plant response rating” value [15, 22] was 65 and the “Crabgrass, Large plant response rating” value [15, 23] was 5.
